Patent US10849322B2, “Use of hibiscus acid and derivatives thereof as antimicrobials against antibiotic-resistant and non-antibiotic-resistant microorganisms” (UNIVERSIDAD AUTONOMA DEL ESTADO DE HIDALGO, priority 2015, dated 2020)

Legend:
[1] = system: E coli O157H7; test: Disc diffusion, zones of inhibition in culture medium; type: cell-based, Escherichia coli; settings: A = E coli O157H7, average of four repetitions
Protocol: (§1) […]. Select mutants resistant to the antibiotic rifampicin (R+) to eliminate the interference of the native microbial flora of Hibiscus acid and derivatives (Castro-Rosas and Escartín, 2000). Maintain the R+ strains at 4-7° C. on blood-based agar (ABS, Merck®, Germany) with biweekly transfers, activating tripticasein soy broth (CST, Bioxon®, Mexico) with incubation at 35° C./24 h.
(§2) Prepare cultures of each one of the R+ study bacteria in tubes of 13×100 mm containing 3 ml of Tripticasein Soy Broth (TSB) incubating at 35° C. for 24 hours. Subsequently, centrifuge the cultures at 3500 rpm for 20 minutes. Then discard the supernatant and resuspend the cell pack by adding 3 ml of sterile isotonic saline solution (ISS) and agitate in vortex for 10 seconds. Repeat the previous procedure two more times. Subsequently, dilute each culture of the washed strains in a decimal proportion with ISS.
(§3) From the dry fractions (collections) prepare aqueous solutions using a solution of Polysorbate 80:water that was previously prepared in a ratio of 20:80. To this solution of polysorbate 80:water, add each dry fraction or chromatographic collection separately in a 1:9 ratio, in clean jars.
(§4) Separately, place 100 μL of the first dilution of the washed and diluted cultures on boxes of Agar Soya Tripticasa (AST) supplemented with 100 mg/L of the antibiotic rifampin; distribute the inoculum over the entire surface of the agar using the surface extension technique. Place on the inoculated boxes, separately, filter paper discs of a size of 0.5 cm and on the disks place aliquots of 10 μL of the solution of the chromatographic fractions. Perform four repetitions for each treatment. After the aliquots of the fractions or collections are absorbed by the agar, incubate the culture boxes at 35° C. for 24 hours.

[2] = system: E. coli enteropathogenic; test: as above; type: cell-based, Escherichia coli; settings: D = E. coli enteropathogenic, average of four repetitions
Protocol: as §1, §2, §3, §4

[3] = system: E. coli enteroinvasive; test: as above; type: cell-based, Escherichia coli; settings: B = E. coli enteroinvasive, average of four repetitions
Protocol: as §1, §2, §3, §4

[4] = system: E. coli enterotoxigenic; test: as above; type: cell-based, Escherichia coli; settings: C = E. coli enterotoxigenic, average of four repetitions
Protocol: as §1, §2, §3, §4

[5] = system: Shigella flexneri; test: as above; type: cell-based; settings: H = Shigella flexneri, average of four repetitions
Protocol: as §1, §2, §3, §4

[6] = system: V. cholerae O1; test: as above; type: cell-based; settings: M = V. cholerae O1, average of four repetitions
Protocol: as §1, §2, §3, §4

[7] = system: Pseudomonas aeruginosa; test: as above; type: cell-based; settings: column L, average of four repetitions
Protocol: as §1, §2, §3, §4

[8] = system: Listeria monocytogenes; test: as above; type: cell-based; settings: I = Listeria monocytogenes, average of four repetitions
Protocol: as §1, §2, §3, §4

[9] = system: Salmonella Typhimurium R+; test: as above; type: cell-based; settings: E = Salmonella Typhimurium R+ (resistant to 14 antibiotics), average of four repetitions
Protocol: as §1, §2, §3, §4

[10] = system: Salmonella choleraesuis; test: as above; type: cell-based; settings: column F, average of four repetitions
Protocol: as §1, §2, §3, §4

[11] = system: Staphylococcus aureus; test: as above; type: cell-based; settings: K = Staphylococcus aureus, average of four repetitions
Protocol: as §1, §2, §3, §4

[12] = system: Shigella sonnei; test: as above; type: cell-based; settings: G = Shigella sonnei, average of four repetitions
Protocol: as §1, §2, §3, §4

[13] = system: L. monocytogenes scott A; test: as above; type: cell-based, Listeria monocytogenes; settings: J = L. monocytogenes scott A, average of four repetitions
Protocol: as §1, §2, §3, §4

[14] = system: 13 different microorganisms; test: Antimicrobial effect in culture medium, whole panel; type: cell-based; settings: against the control; all study microorganisms
Protocol: as §1, §2
From the dry fractions (collections) prepare aqueous solutions using a solution of Polysorbate 80:water that was previously prepared in a ratio of 20:80. To this solution of polysorbate 80:water, add each dry fraction or chromatographic collection separately in a 1:9 ratio, in clean jars. […]

| Compound | Zones of inhibition [1] [mm] | Zones of inhibition [2] [mm] | Zones of inhibition [3] [mm] | Zones of inhibition [4] [mm] | Zones of inhibition [5] [mm] | Zones of inhibition [6] [mm] | Zones of inhibition [7] [mm] | Zones of inhibition [8] [mm] | Zones of inhibition [9] [mm] | Zones of inhibition [10] [mm] | Zones of inhibition [11] [mm] | Zones of inhibition [12] [mm] | Zones of inhibition [13] [mm] | antimicrobial effect (zone of inhibition, in words) [14] |
| --- | --- | --- | --- | --- | --- | --- | --- | --- | --- | --- | --- | --- | --- | --- |
| CCOC(=O)[C@@]1(O)CC(=O)O[C@@H]1C(=O)O [Compound 4, mono ester ethyl of hibiscus acid] | 6 | 6 | 6 | 6 | 6 | 8 | 6 | 6 | 6 | 6 | 6 | 6 | 6 | – |
| O=C1C[C@](O)(C(=O)O)[C@@H](C(=O)O)O1 [Compound 1, hibiscus acid] | 10 | 11 | 12 | 10 | 10 | 14 | 10 | 10 | 12 | 10 | 10 | 10 | 10 | maximum zone of inhibition |
| CCOC(=O)C[C@](O)(C(=O)OCC)[C@@H](O)C(=O)OCC [Compound 6, tri-ethyl ester of hydroxycitric acid] | 5 | 5 | 5 | 5 | 5 | 6 | 5 | 5 | 5 | 5 | 5 | 5 | 5 | lowest |
| COC(=O)[C@H]1OC(=O)C[C@]1(O)C(=O)OC [Compound 3, di-ester methyl of hibiscus acid] | 8 | 8 | 8 | 8 | 8 | 10 | 8 | 8 | 8 | 8 | 8 | 8 | 8 | – |
| CCOC(=O)[C@H]1OC(=O)C[C@]1(O)C(=O)OCC [Compound 5, di-ester ethyl of hibiscus acid] | 6 | 6 | 6 | 6 | 6 | 8 | 6 | 6 | 6 | 6 | 6 | 6 | 6 | – |
| COC(=O)[C@@]1(O)CC(=O)O[C@@H]1C(=O)O [Compound 2, mono ester methyl of hibiscus acid] | 10 | 10 | 10 | 10 | 10 | 12 | 8 | 8 | 10 | 10 | 10 | 10 | 8 | – |
